Test results published in ChEMBL document CHEMBL4382243, “The synthesis of 4-arylamido-2-arylaminoprimidines as potent EGFR T790M/L858R inhibitors for NSCLC” (Bioorg Med Chem, 2018).
The source made the active and inactive calls. The calls are words filed in the database; no cut-off is given here.

How the values were obtained:
[1] = tested on: A549; assay: cells; type: functional, cell-based; settings: Homo sapiens, A549, 72 h
Description: Antiproliferative activity against human A549 cells after 72 hrs by MTT assay

[2] = cells; type: ADME, cell-based; settings: Homo sapiens, NHBE, 72 h
Description: Antiproliferative activity against NHBE cells after 72 hrs by MTT assay

[3] = tested on: NCI-H1975; assay: Antiproliferative activity against human NCI-H1975 cells harboring EGFR T790M/L858R double mutant after 72 hrs by MTT assay; type: functional, cell-based; settings: NCI-H1975, 72 h
[4] = tested on: ASPC1; assay: cells; type: functional, cell-based; settings: Homo sapiens, ASPC1, 72 h;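 further: growth inhibition of the cells quantified with an MTT readout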
Description: Antiproliferative activity against human Aspc-1 cells after 72 hrs by MTT assay

[5] = tested on: NCI-H23; assay: Antiproliferative activity against human NCI-H23 cells after 72 hrs by MTT assay; type: functional, cell-based; settings: NCI-H23, 72 h
[6] = biological target: Epidermal growth factor receptor (Homo sapiens, UniProt P00533, L858R/T790M); type: cell-based, Sf9
Chain of Epidermal growth factor receptor (Homo sapiens, UniProt P00533, L858R/T790M) (P00533 25-1210 T790M/L858R limits assumed): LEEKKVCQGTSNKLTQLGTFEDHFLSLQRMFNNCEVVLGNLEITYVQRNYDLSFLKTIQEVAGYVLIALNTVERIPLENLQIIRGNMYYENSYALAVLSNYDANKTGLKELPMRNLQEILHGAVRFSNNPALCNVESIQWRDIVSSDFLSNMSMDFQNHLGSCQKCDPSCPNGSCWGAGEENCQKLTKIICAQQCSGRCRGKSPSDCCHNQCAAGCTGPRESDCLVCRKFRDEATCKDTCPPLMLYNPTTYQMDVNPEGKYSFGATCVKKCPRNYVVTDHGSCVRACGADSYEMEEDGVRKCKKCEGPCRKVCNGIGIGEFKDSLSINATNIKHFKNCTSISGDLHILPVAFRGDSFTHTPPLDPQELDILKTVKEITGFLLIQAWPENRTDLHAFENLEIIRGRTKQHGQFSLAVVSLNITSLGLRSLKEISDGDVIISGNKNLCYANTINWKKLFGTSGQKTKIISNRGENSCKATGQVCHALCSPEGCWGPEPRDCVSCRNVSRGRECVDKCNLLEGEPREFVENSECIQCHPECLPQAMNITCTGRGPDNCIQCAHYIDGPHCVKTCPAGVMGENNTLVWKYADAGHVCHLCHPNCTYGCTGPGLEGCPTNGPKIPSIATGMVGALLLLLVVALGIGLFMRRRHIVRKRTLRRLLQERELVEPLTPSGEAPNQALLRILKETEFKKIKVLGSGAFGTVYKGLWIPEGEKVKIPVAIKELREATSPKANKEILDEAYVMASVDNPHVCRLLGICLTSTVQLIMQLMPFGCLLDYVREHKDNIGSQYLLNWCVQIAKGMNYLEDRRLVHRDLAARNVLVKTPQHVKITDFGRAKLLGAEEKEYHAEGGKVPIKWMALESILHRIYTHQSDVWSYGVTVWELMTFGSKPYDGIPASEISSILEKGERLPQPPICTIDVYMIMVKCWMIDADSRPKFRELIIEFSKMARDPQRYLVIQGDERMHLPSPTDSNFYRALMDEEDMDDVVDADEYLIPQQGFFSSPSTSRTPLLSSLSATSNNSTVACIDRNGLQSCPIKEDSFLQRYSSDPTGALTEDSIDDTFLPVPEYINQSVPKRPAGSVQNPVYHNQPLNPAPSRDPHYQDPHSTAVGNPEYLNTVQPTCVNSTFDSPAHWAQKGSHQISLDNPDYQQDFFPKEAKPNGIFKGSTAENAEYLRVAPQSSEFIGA

[7] = biological target: Epidermal growth factor receptor (Homo sapiens, UniProt P00533); type: ADME, cell-based, Sf9
Chain of Epidermal growth factor receptor (Homo sapiens, UniProt P00533) (P00533 whole entry): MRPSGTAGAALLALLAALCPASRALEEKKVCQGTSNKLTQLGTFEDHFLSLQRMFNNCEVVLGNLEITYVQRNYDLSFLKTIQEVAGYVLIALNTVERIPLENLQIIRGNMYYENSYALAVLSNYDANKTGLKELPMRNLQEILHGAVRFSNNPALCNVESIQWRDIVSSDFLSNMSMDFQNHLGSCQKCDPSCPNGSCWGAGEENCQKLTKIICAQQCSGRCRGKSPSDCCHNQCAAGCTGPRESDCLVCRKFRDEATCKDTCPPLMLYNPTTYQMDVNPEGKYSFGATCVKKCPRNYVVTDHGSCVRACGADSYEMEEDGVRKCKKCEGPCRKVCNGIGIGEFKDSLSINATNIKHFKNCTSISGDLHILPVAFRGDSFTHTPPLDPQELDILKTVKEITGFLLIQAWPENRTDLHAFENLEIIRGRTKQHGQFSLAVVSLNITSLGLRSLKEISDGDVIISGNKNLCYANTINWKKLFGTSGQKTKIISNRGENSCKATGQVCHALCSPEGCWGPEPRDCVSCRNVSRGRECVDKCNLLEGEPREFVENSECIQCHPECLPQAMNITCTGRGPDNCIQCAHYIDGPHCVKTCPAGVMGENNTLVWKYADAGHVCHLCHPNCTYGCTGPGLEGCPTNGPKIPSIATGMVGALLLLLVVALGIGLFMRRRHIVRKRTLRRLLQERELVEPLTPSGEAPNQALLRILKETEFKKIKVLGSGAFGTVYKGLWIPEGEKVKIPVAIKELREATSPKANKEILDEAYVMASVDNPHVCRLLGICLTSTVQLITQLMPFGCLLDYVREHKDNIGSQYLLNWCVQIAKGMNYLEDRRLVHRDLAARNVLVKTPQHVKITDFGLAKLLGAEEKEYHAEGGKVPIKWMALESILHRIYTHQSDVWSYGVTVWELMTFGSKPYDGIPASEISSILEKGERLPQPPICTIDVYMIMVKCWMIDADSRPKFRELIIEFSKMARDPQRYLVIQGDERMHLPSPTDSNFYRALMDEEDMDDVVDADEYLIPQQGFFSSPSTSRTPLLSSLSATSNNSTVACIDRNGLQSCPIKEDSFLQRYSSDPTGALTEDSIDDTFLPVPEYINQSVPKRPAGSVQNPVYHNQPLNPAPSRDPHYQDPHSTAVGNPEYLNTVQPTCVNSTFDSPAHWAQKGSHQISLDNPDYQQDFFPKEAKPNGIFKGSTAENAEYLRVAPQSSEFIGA
Description: Inhibition of wild-type human N-terminal GST-tagged EGFR (695 to end residues) expressed in baculovirus infected Sf9 insect cells using Poly (4:1 Glu, Tyr) as substrate after 60 mins in presence of ATP by ADP-Glo assay

[8] = tested on: A-431; assay: cells; type: ADME, cell-based; settings: Homo sapiens, A-431, 72 h;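 further: growth inhibition of A-431 cells expressing wild-type EGFR, read out by MTT assay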
Description: Antiproliferative activity against human A431 cells harboring wild-type EGFR after 72 hrs by MTT assay

[9] = tested on: NCI-H1975; assay: Antiproliferative activity against human NCI-H1975 cells harboring EGFR T790M/L858R double mutant assessed as cell viability at 10 uM after 24 hrs by MTT assay (reference value: 98.3%); type: functional; settings: for viability at 10 µM: Homo sapiens, NCI-H1975, 24 h, read-out: Activity
[10] = tested on: NCI-H1975; assay: Antiproliferative activity against human NCI-H1975 cells harboring EGFR T790M/L858R double mutant assessed as cell viability at 1 uM after 72 hrs by MTT assay (reference value: 98.3%); type: functional; settings: for viability at 1 µM: Homo sapiens, NCI-H1975, 72 h, read-out: Activity
[11] = tested on: NCI-H1975; assay: Antiproliferative activity against human NCI-H1975 cells harboring EGFR T790M/L858R double mutant assessed as cell viability at 0.1 uM after 24 hrs by MTT assay (reference value: 98.3%); type: functional; settings: for viability at 0.1 µM: Homo sapiens, NCI-H1975, 24 h, read-out: Activity
[12] = tested on: NCI-H1975; assay: Antiproliferative activity against human NCI-H1975 cells harboring EGFR T790M/L858R double mutant assessed as cell viability at 1 uM after 48 hrs by MTT assay (reference value: 98.3%); type: functional; settings: for viability at 1 µM: Homo sapiens, NCI-H1975, 48 h, read-out: Activity
[13] = tested on: NCI-H1975; assay: Antiproliferative activity against human NCI-H1975 cells harboring EGFR T790M/L858R double mutant assessed as cell viability at 0.1 uM after 48 hrs by MTT assay (reference value: 98.3%); type: functional; settings: for viability at 0.1 µM: Homo sapiens, NCI-H1975, 48 h, read-out: Activity
[14] = tested on: NCI-H1975; assay: Antiproliferative activity against human NCI-H1975 cells harboring EGFR T790M/L858R double mutant assessed as cell viability at 10 uM after 48 hrs by MTT assay (reference value: 98.3%); type: functional; settings: for viability at 10 µM: Homo sapiens, NCI-H1975, 48 h, read-out: Activity
[15] = tested on: NCI-H1975; assay: Antiproliferative activity against human NCI-H1975 cells harboring EGFR T790M/L858R double mutant assessed as cell viability at 0.1 uM after 72 hrs by MTT assay (reference value: 98.3%); type: functional; settings: for viability at 0.1 µM: Homo sapiens, NCI-H1975, 72 h, read-out: Activity
[16] = tested on: NCI-H1975; assay: Antiproliferative activity against human NCI-H1975 cells harboring EGFR T790M/L858R double mutant assessed as cell viability at 1 uM after 24 hrs by MTT assay (reference value: 98.3%); type: functional; settings: for viability at 1 µM: Homo sapiens, NCI-H1975, 24 h, read-out: Activity
[17] = tested on: NCI-H1975; assay: Antiproliferative activity against human NCI-H1975 cells harboring EGFR T790M/L858R double mutant assessed as cell viability at 10 uM after 72 hrs by MTT assay (reference value: 98.3%); type: functional; settings: for viability at 10 µM: Homo sapiens, NCI-H1975, 72 h, read-out: Activity
[18] = tested on: NCI-H1975; assay: Induction of apoptosis in human NCI-H1975 cells harboring EGFR T790M/L858R double mutant assessed as nuclear condensation at 1 to 20 uM after 72 hrs by DAPI staining based fluorescent microscopic analysis; type: functional, cell-based
[19] = tested on: NCI-H1975; assay: Induction of apoptosis in human NCI-H1975 cells harboring EGFR T790M/L858R double mutant assessed as membrane blebbing at 1 to 20 uM after 72 hrs by DAPI staining based fluorescent microscopic analysis; type: functional, cell-based
[20] = tested on: NCI-H1975; assay: Induction of apoptosis in human NCI-H1975 cells harboring EGFR T790M/L858R double mutant assessed as apoptotic body formation at 1 to 20 uM after 72 hrs by DAPI staining based fluorescent microscopic analysis; type: functional, cell-based
[21] = tested on: NCI-H1975; assay: Antiproliferative activity against human NCI-H1975 cells harboring EGFR T790M/L858R double mutant at 1 to 20 uM after 72 hrs by acridine orange/ethidium bromide staining based fluorescent microscopic analysis; type: functional, cell-based
[22] = tested on: NCI-H1975; assay: Antimigratory activity against human NCI-H1975 cells at 5 to 10 uM up to 48 hrs by wound healing assay; type: functional, cell-based

Compound | IC50 [1] [µM] | IC50 [2] [µM] | IC50 [3] [nM] | IC50 [4] [µM] | IC50 [5] [µM] | IC50 [6] [nM] | IC50 [7] [nM] | IC50 [8] [µM] | further results
C=CC(=O)Nc1cc(Nc2nccc(NC(=O)c3ccc(C(F)(F)F)cc3)n2)c(OC)cc1N1CCN(C)CC1 | 7.89 | 19.4 | 3420 | > 10 | 9.2 | 27.9 | 152 | 9.2 | 
C=CC(=O)Nc1cc(Nc2nccc(-c3cn(C)c4ccccc34)n2)c(OC)cc1N(C)CCN(C)C [OSIMERTINIB] | 3.24 | > 40 | […] | 3.98 |  |  |  | […] | Activity [9]: 3.68%; Activity [10]: 33.5%; Activity [11]: 87.1%; Activity [12]: 59%; Activity [13]: 83.6%; Activity [14]: 1.71%; Activity [15]: 77.2%; Activity [16]: 78.6%; Activity [17]: 1.42%
C=CC(=O)Nc1cc(Nc2nccc(NC(=O)c3cccc4ccccc34)n2)c(OC)cc1N1CCN(C)CC1 | 6.77 | 18.9 | 1090 | 6.6 | 10.6 | 33.3 | 134 | 7.75 | 
C=CC(=O)Nc1cc(Nc2nccc(NC(=O)c3ccc(OC)c(OC)c3)n2)c(OC)cc1N1CCC(C(N)=O)CC1 | 4.47 | > 40 | 1460 | > 10 | > 16 | 54.7 | 128 | 9.45 | 
C=CC(=O)Nc1cc(Nc2nccc(NC(=O)c3ccccc3)n2)c(OC)cc1N1CCC(C(N)=O)CC1 |  |  | > 20000 |  |  | 0.587 | 181 | 15.5 | 
C=CC(=O)Nc1cc(Nc2nccc(NC(=O)c3ccccc3)n2)c(OC)cc1N(C)CCN(C)C | 1.74 | 15.1 | 1340 | 3.58 | > 16 | 143 | 318 | 1.06 | 
C=CC(=O)Nc1cc(Nc2nccc(NC(=O)c3ccccc3)n2)c(OC)cc1N1CCN(C)CC1 | 5.97 | 23.9 | 1420 | > 10 | > 16 | 121 | 156 | 3.94 | 
C=CC(=O)Nc1cc(Nc2nccc(NC(=O)c3ccc(OC)c(OC)c3)n2)c(OC)cc1N1CCN(C)CC1 | 6.82 | 27 | 1660 | > 10 | > 16 | 12.6 | 157 | 11.7 | viability at 10 µM [9]: 41.4%; viability at 1 µM [10]: 52.8%; viability at 0.1 µM [11]: 93.8%; viability at 1 µM [12]: 74.8%; Activity [18]: Active; Activity [19]: Active; viability at 0.1 µM [13]: 91.6%; Activity [20]: Active; viability at 10 µM [14]: 11.8%; Activity [21]: Active; viability at 0.1 µM [15]: 90.2%; Activity [22]: Active; viability at 1 µM [16]: 85.4%; viability at 10 µM [17]: 5.8%
C=CC(=O)Nc1cc(Nc2nccc(NC(=O)c3ccc(C(F)(F)F)cc3)n2)c(OC)cc1N(C)CCN(C)C | 9.88 | 12.9 | 3260 | 8.03 | 7.98 | 46.5 | 109 | 7.24 | 
C=CC(=O)Nc1cc(Nc2nccc(NC(=O)c3cccc(OC)c3)n2)c(OC)cc1N(C)CCN(C)C | 3 | 12.3 | 1160 | 3.4 | 11.8 | 59 | 154 | 4.16 | 
COc1cc2ncnc(Nc3ccc(F)c(Cl)c3)c2cc1OCCCN1CCOCC1 [GEFITINIB] |  |  |  |  |  |  |  |  | viability at 10 µM [9]: 48.7%; viability at 1 µM [10]: 63.2%; viability at 0.1 µM [11]: 97.6%; viability at 1 µM [12]: 84.3%; viability at 0.1 µM [13]: 93.5%; viability at 10 µM [14]: 32.7%; viability at 0.1 µM [15]: 89.9%; viability at 1 µM [16]: 90.6%; viability at 10 µM [17]: 18.7%
C=CC(=O)Nc1cc(Nc2nccc(NC(=O)c3cccc(OC)c3)n2)c(OC)cc1N1CCN(C)CC1 | 6.45 | 2.5 | 4230 | > 10 | 15.9 | 55 | 147 | 1.59 | 
C=CC(=O)Nc1cc(Nc2nccc(NC(=O)c3ccccc3)n2)c(OC)cc1N(C)C |  |  | > 20000 |  |  |  |  | > 20 | 
C=CC(=O)Nc1cc(Nc2nccc(NC(=O)c3ccc(OC)c(OC)c3)n2)c(OC)cc1N(C)C |  |  | 2150 |  |  | 40.2 | 149 | 18.2 | 
C=CC(=O)Nc1cc(Nc2nccc(NC(=O)c3cccc(OC)c3)n2)c(OC)cc1N1CCC(C(N)=O)CC1 |  |  | 11500 |  |  | 32.6 | 50.5 | 13.1 | 
C=CC(=O)Nc1cc(Nc2nccc(NC(=O)c3ccc(OC)c(OC)c3)n2)c(OC)cc1N(C)CCN(C)C | 3.95 | 12.7 | 2640 | 3.32 | 15.5 | 123 | 187 | 6.55 | 
C=CC(=O)Nc1cc(Nc2nccc(NC(=O)c3ccc(C(F)(F)F)cc3)n2)c(OC)cc1N1CCC(C(N)=O)CC1 |  |  | 15700 |  |  | 65.3 | 127 | > 20 | 
